# Source: patent US11685744B2, “CDK inhibitors and their use as pharmaceuticals” (Prelude Therapeutics, Incorporated, priority 2020, dated 2023)
# Assays:
# [1] = molecular target: CDK4/Cyclin D1 (Homo sapiens (Human), UniProt P11802); experiment: CDK4/CyclinD1 enzymatic activity assay (TR-FRET); type: biochemical; settings: ATP 2 mM, read-out: CDK4_D1 IC50
# Procedure, shortened: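 Insect-cell CDK4/Cyclin D1 (1 nM) with ULight-4E-BP1 (100 nM) and 2 mM ATP in HEPES pH 7.4 buffer, preincubated 20 min with compound (9-dose, 3-fold dilutions); 10 mM MgCl2 started the reaction, run 60 min at 37 °C. EDTA/Eu-anti-phospho-4E-BP1 TR-FRET detection; IC50 from 4-parameter Hill fit.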
# [2] = molecular target: CDK6/Cyclin D1 (Homo sapiens (Human), UniProt Q00534); experiment: CDK6/CyclinD1 enzymatic activity assay (TR-FRET); type: biochemical; settings: ATP 250 μM, read-out: CDK6_D1 IC50
# Sequence of CDK6/Cyclin D1 (Q00534 whole entry): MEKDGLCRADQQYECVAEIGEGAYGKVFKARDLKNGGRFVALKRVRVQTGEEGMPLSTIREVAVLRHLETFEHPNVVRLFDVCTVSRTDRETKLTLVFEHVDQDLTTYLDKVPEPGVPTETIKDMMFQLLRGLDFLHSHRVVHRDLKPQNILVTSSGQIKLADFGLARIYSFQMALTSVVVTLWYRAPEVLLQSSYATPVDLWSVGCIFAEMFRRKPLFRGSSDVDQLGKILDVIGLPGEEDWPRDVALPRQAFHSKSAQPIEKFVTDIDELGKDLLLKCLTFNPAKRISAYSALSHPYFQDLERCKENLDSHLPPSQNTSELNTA
# Sequence of CDK6/Cyclin D1 (P24385 whole entry partner): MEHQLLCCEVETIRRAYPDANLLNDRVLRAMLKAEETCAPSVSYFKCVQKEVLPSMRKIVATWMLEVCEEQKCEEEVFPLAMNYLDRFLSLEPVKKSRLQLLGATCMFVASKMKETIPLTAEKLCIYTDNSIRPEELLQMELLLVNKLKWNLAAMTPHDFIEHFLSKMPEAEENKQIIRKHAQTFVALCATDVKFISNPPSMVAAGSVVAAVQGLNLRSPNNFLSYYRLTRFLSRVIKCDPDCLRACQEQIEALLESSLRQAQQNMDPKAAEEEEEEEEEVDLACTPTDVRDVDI
# Procedure: CDK6/CyclinD1 Enzymatic Activity Assay
# The inhibitory activity of compounds was evaluated in vitro using TR-FRET assay with white 384-well low volume microplate (Greiner Bio-One). CDK6/Cyclin D1 catalyzed phosphorylation of peptide in the presence and absence of compounds was measured and used in IC50 determination. Recombinant protein complex CDK6/Cyclin D1, expressed from insect cell, was purchased from ProQinase. Testing compounds were dissolved in DMSO at 0.1 mM and tested in 9-dose IC50 mode. The reaction mixture was prepared by mixing CDK6/Cyclin D1 (1 nM final), ULight-4E-BP1 (100 nM final, Perkinelmer, TRF0128-D), and ATP (250 μM final) in assay buffer (20 mM of HEPES pH 7.4, 1 mM of EGTA, 0.05% BSA, 0.005% Tween 20, and 1 mM TCEP). The compound of interest in DMSO was added to each well in 3-fold serial dilution by dispenser (TECAN D300E). After 20 minutes preincubation at room temperature, 0.1 μL MgCl2 (10 mM final) was added to initiate the reaction. Following a 60 minutes incubation at 37° C., the reaction was stopped by addition of 2 μL of quenching buffer consisting of Lance detection buffer (Perkinelmer CR97-100C), 2 nM LANCE Ultra Europium-anti-P-4E-BP1 (Perkinelmer, TRF0216-D), 10 mM EDTA, and incubate at room temperature for additional 60 minutes in dark. The reaction signal was measured by Envision multimode plate reader (PerkinElmer, 2102-0010). IC50 values were determined by fitting the data to the standard 4 parameters with Hill Slope using GraphPad Prism software.
# [3] = tested on: MCF7 adenocarcinoma cell line; experiment: Cell proliferation studies in MCF7 cells (ATP-Lite, 10 days); type: cell-based; settings: Homo sapiens, 240 h, read-out: PROLIFERATION_CTG_MCF7 IC50
# Procedure, shortened: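 Cells were seeded at 100 or 200 per well in DMEM with 10% FBS and dosed in quadruplicate over a 9-point 3-fold dilution. Incubation lasted 10 days at 37 °C, with media exchange and re-dosing on day 5. Viability was read by ATP-Lite luminescence and normalised to background and DMSO, giving IC50.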
# [4] = Brain-to-plasma ratio (Kp) determination in Sprague-Dawley rats; settings: male, rat, po, 10 mg/kg
# Procedure: The brain-to-plasma ratio (Kp) was determined in male Sprague-Dawley rats (7-9 weeks old) four hours after a single oral dose. Rats were acclimated and given free access to standard rodent chow and water throughout the entire study. Test articles were formulated as a solution at 0.3, 0.4, 0.5, or 1.0 mg/mL in a vehicle comprised of 10:15:75 (v:v:v) dimethylacetamide (DMA):Solutol HS15:water and delivered orally at a rate of 10 mL/kg to three rats to achieve final doses of 3, 4, 5, or 10 mg/kg, respectively. At 4 hours post-dose, blood samples were collected via jugular vein cannula into tubes containing K2EDTA as the anticoagulant and stored on ice. Blood samples were then centrifuged at 4° C. at 6000 rpm for 5 minutes, and the resulting plasma was placed into tubes and stored frozen at −80° C. until analysis. Whole brain samples were also collected at 4 hours post-dose. The weight of each brain was measured and recorded, and samples were immediately stored on dry ice. Brain samples were then transferred to storage at −80° C. until analysis.
# Prior to analysis, brain samples were combined with water (4 mL/1 gram of brain) and homogenized. Prior to injection, plasma and brain homogenate samples and standards were prepared for analysis by precipitation with acetonitrile or 1:1 (v:v) methanol:acetonitrile. Samples were then thoroughly mixed, centrifuged at 4000 rpm for 15 minutes, and the resulting supernatant was transferred for analysis. Test article concentrations in plasma and brain homogenate were then determined by LC-MS/MS and quantified against calibration standards prepared to known concentrations in matched blank (analyte-free) biological matrix. The Kp was then determined by dividing the dilution-corrected brain concentration by the plasma concentration from each rat. A brain density of 1 gram/mL was assumed for all calculations.
# [5] = brain (homogenate) versus plasma
# Sequence of CDK4/Cyclin D1 (P11802 whole entry): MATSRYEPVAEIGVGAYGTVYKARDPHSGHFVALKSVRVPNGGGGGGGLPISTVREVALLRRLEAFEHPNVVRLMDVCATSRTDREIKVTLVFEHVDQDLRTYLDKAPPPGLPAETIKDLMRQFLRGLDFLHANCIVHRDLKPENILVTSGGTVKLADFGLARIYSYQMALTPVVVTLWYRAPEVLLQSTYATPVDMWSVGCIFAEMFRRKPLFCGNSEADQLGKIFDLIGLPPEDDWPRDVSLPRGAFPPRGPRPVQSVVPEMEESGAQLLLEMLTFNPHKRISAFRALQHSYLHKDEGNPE
# Sequence of CDK4/Cyclin D1 (P24385 whole entry partner): as the sequence (P24385 whole entry partner) above
IC50 [1] [nM],IC50 [2] [nM],IC50 [3] [nM],"Kp at 4 h [4, 5]",Kp at 4 h ([4]; brain / plasma),Structure (SMILES)
≤ 20,≤ 20,20 to 200,1 to 3,,"Cc1c(-c2nc(Nc3ccc(C4CCCN(C)C4)cn3)ncc2F)sc2c1ncn2C(C)C (single isomer, unassigned) [Example 125, 5-Fluoro-N-[5-[-1-methylpiperidin-3-yl]pyridin-2-yl]-4-(6-methyl-3-propan-2-ylthieno[2,3-d]imidazol-5-yl)pyrimidin-2-amine]"
≤ 20,20 to 200,20 to 200,1 to 3,,"CCN1CCN(c2ccc(Nc3ncc(F)c(-c4sc5c(nc(C)n5C5CCCC5)c4C)n3)nc2)CC1 [Example 1, 4-(3-Cyclopentyl-2,6-dimethyl-3H-thieno[2,3-d]imidazol-5-yl)-N-(5-(4-ethylpiperazin-1-yl)pyridin-2-yl)-5-fluoropyrimidin-2-amine]"
≤ 20,≤ 20,≤ 20,1 to 3,,"CCN1CCN(c2ccc(Nc3ncc(F)c(-c4sc5c(nc(C)n5C(C)C)c4C)n3)nc2)CC1 [Example 2, N-(5-(4-Ethylpiperazin-1-yl)pyridin-2-yl)-5-fluoro-4-(3-isopropyl-2,6-dimethyl-3H-thieno[2,3-d]imidazol-5-yl)pyrimidin-2-amine]"
≤ 20,20 to 200,20 to 200,< 1,,"CCN1CCN(Cc2ccc(Nc3ncc(F)c(-c4sc5c(nc(C)n5C(C)C)c4C)n3)nc2)CC1 [Example 3, N-(5-((4-Ethylpiperazin-1-yl)methyl)pyridin-2-yl)-5-fluoro-4-(3-isopropyl-2,6-dimethyl-3H-thieno[2,3-d]imidazol-5-yl)pyrimidin-2-amine]"
≤ 20,≤ 20,20 to 200,1 to 3,,"CCN1CCN(c2ccc(Nc3ncc(F)c(-c4sc5c(nc(C)n5C5CCC5)c4C)n3)nc2)CC1 [Example 4, 4-(3-Cyclobutyl-2,6-dimethylthieno[2,3-d]imidazol-5-yl)-N-[5-(4-ethylpiperazin-1-yl)pyridin-2-yl]-5-fluoro-pyrimidin-2-amine]"
≤ 20,≤ 20,≤ 20,1 to 3,,"Cc1c(-c2nc(Nc3ccc(N4CCN(C)CC4)cn3)ncc2F)sc2c1nc(C)n2C(C)C [Example 9, 5-Fluoro-4-(3-isopropyl-2,6-dimethyl-3H-thieno[2,3-d]imidazol-5-yl)-N-(5-(4-methylpiperazin-1-yl)pyridin-2-yl)pyrimidin-2-amine]"
≤ 20,20 to 200,20 to 200,> 3,,"CCN1CC2(C1)CN(c1ccc(Nc3ncc(F)c(-c4cc5nccc(C(C)C)c5s4)n3)nc1)C2 [Example 23, N-[5-(6-Ethyl-2,6-diazaspiro[3.3]heptan-2-yl)pyridin-2-yl]-5-fluoro-4-(7-propan-2-ylthieno[3,2-b]pyridin-2-yl)pyrimidin-2-amine]"
≤ 20,≤ 20,≤ 20,1 to 3,,"CCN1CCN(c2ccc(Nc3ncc(F)c(-c4cc5c(s4)c(C(C)C)cc[n+]5[O-])n3)nc2)CC1 [Example 50, N-[5-(4-Ethylpiperazin-1-yl)pyridin-2-yl]-5-fluoro-4-(4-oxido-7-propan-2-ylthieno[3,2-b]pyridin-4-ium-2-yl)pyrimidin-2-amine]"
≤ 20,≤ 20,20 to 200,,> 3,"Cc1c(-c2nc(Nc3ccc(N4CCN(C)CC4)cn3)ncc2F)sc2c(C(C)C)cn(C)c(=O)c12 [Example 51, 2-[5-Fluoro-2-[[5-(4-methylpiperazin-1-yl)pyridin-2-yl]amino]pyrimidin-4-yl]-3,5-dimethyl-7-propan-2-ylthieno[3,2-c]pyridin-4-one]"
≤ 20,≤ 20,≤ 20,1 to 3,,"CCN1CC2(C1)CN(c1ccc(Nc3ncc(F)c(-c4sc5c(nc(C)n5C(C)C)c4C)n3)nc1)C2 [Example 52, 4-(2,6-Dimethyl-3-propan-2-ylthieno[2,3-d]imidazol-5-yl)-N-[5-(6-ethyl-2,6-diazaspiro[3.3]heptan-2-yl)pyridin-2-yl]-5-fluoropyrimidin-2-amine]"
≤ 20,20 to 200,20 to 200,< 1,,"CCN1CCN(C(=O)c2ccc(Nc3ncc(F)c(-c4cc5nc(C)n(C(C)C)c5s4)n3)nc2)CC1 [Example 54, (4-Ethylpiperazin-1-yl)-[6-[[5-fluoro-4-(2-methyl-3-propan-2-ylthieno[2,3-d]imidazol-5-yl)pyrimidin-2-yl]amino]pyridin-3-yl]methanone]"
≤ 20,≤ 20,20 to 200,> 3,,"CCN1CC2(C1)CN(c1ccc(Nc3ncc(F)c(-c4sc5c(C(C)C)n(C)nc5c4C)n3)nc1)C2 [Example 55, 4-(2,6-Dimethyl-3-propan-2-ylthieno[3,2-c]pyrazol-5-yl)-N-[5-(6-ethyl-2,6-diazaspiro[3.3]heptan-2-yl)pyridin-2-yl]-5-fluoropyrimidin-2-amine]"
≤ 20,≤ 20,20 to 200,> 3,,"Cc1c(-c2nc(Nc3ccc(C4CCN(C)CC4)cn3)ncc2F)sc2c(C(C)C)cn(C)c(=O)c12 [Example 56, 2-(5-Fluoro-2-((5-(1-methylpiperidin-4-yl)pyridin-2-yl)amino)pyrimidin-4-yl)-7-isopropyl-3,5-dimethylthieno[3,2-c]pyridin-4(5H)-one]"
≤ 20,≤ 20,20 to 200,1 to 3,,"CCN1CC2(C1)CN(c1ccc(Nc3ncc(F)c(-c4sc5c(C(C)C)cn(C)c(=O)c5c4C)n3)nc1)C2 [Example 57, 2-(2-((5-(6-Ethyl-2,6-diazaspiro[3.3]heptan-2-yl)pyridin-2-yl)amino)-5-fluoropyrimidin-4-yl)-7-isopropyl-3,5-dimethylthieno[3,2-c]pyridin-4(5H)-one]"
≤ 20,≤ 20,≤ 20,< 1,,"Cc1c(-c2nc(Nc3ccc(C4CCN(C)CC4)cn3)ncc2F)sc2c(C(C)C)c[nH]c(=O)c12 [Example 60, 2-(5-Fluoro-2-((5-(1-methylpiperidin-4-yl)pyridin-2-yl)amino)pyrimidin-4-yl)-7-isopropyl-3-methylthieno[3,2-c]pyridin-4(5H)-one]"
≤ 20,≤ 20,≤ 20,1 to 3,,"Cc1c(-c2nc(Nc3ccc(N4CC5(CCN(C)C5)C4)cn3)ncc2F)sc2c(C(C)C)cn(C)c(=O)c12 [Example 61, 2-(5-Fluoro-2-((5-(6-methyl-2,6-diazaspiro[3.4]octan-2-yl)pyridin-2-yl)amino)pyrimidin-4-yl)-7-isopropyl-3,5-dimethylthieno[3,2-c]pyridin-4(5H)-one]"
20 to 200,20 to 200,200 to 2000,< 1,,"Cc1nc2cc(-c3nc(Nc4ccc(CN5CCN(CC(F)F)CC5)cn4)ncc3F)sc2n1C(C)C [Example 64, N-[5-[[4-(2,2-Difluoroethyl)piperazin-1-yl]methyl]pyridin-2-yl]-5-fluoro-4-(2-methyl-3-propan-2-ylthieno[2,3-d]imidazol-5-yl)pyrimidin-2-amine]"
≤ 20,20 to 200,20 to 200,1 to 3,,"Cc1c(-c2nc(Nc3ccc(N4CCC(N(C)C)C4)cn3)ncc2F)sc2c1nc(C)n2C(C)C (stereo not drawn) [Example 73, N-[5-[3-(Dimethylamino)pyrrolidin-1-yl]pyridin-2-yl]-4-(2,6-dimethyl-3-propan-2-ylthieno[2,3-d]imidazol-5-yl)-5-fluoropyrimidin-2-amine]"
≤ 20,,20 to 200,> 3,,"[2H]C([2H])([2H])n1cc(C(C)C)c2sc(-c3nc(Nc4ccc(C5CCN(C)CC5)cn4)ncc3F)c(C)c2c1=O [Example 85, 2-(5-Fluoro-2-((5-(1-methylpiperidin-4-yl)pyridin-2-yl)amino)pyrimidin-4-yl)-7-isopropyl-3-methyl-5-(methyl-d3)thieno[3,2-c]pyridin-4(5H)-one]"
